Values quoted from earlier work, collected in US9206425B2, “Methods for treating Niemann-Pick type C disease” (Trustees of Dartmouth College, priority 2011, dated 2015).
Like-named read-outs stand apart in the source and are kept apart here.

How the values were obtained:
human macrophages = details: in vitro
[1] = tested on: coronary atherosclerosis / familial hypercholesterolemia
[2] = tested on: mouse model for Alzheimer disease
NPC disease = details: humans, two-year study
ACAT1 and ACAT2 = details: Kitayama et al. 2006
ACAT1 [3] = target: T1, ACAT1 (Homo sapiens, UniProt P35610); details: Cho et al. 2003
T1 sequence (P35610 1-550): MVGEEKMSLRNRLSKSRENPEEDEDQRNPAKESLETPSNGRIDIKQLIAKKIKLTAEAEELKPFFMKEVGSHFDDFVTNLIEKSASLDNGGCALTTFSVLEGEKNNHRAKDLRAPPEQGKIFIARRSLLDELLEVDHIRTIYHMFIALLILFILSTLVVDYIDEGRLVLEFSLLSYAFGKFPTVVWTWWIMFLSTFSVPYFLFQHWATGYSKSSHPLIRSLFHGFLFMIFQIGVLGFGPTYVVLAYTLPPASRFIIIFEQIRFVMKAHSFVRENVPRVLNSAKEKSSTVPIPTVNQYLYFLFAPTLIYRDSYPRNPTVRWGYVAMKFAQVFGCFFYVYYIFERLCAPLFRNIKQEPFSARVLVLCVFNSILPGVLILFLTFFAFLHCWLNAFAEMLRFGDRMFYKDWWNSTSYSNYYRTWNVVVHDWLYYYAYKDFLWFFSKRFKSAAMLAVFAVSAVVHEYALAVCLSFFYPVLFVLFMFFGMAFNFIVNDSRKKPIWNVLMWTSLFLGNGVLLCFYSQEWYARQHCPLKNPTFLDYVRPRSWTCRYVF

hACAT-2 = target: T2, hACAT-2 (Homo sapiens, UniProt O75908)
T2 sequence (O75908 1-522): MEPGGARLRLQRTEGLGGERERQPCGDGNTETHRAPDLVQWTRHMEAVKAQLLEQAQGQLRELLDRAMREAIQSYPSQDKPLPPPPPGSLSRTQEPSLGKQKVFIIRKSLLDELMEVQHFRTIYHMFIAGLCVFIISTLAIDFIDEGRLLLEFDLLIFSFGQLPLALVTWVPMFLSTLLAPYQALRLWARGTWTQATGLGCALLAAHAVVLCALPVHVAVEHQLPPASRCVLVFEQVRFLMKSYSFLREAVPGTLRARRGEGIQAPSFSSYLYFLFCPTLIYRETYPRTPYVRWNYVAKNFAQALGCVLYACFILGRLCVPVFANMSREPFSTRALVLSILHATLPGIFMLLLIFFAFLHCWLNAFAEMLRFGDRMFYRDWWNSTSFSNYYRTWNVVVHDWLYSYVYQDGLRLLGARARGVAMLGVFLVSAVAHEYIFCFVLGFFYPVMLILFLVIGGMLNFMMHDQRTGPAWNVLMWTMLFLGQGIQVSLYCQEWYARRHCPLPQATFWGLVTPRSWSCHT

ACAT1 [4] = target: T1, ACAT1; details: Lee et al. 2004
[5] = mouse model for Alzheimer disease
[6] = continuous administration starting at PND 7

CC(C)c1cc(C(C)C)c(CC(=O)NS(=O)(=O)Oc2c(C(C)C)cccc2C(C)C)c(C(C)C)c1 [Avasimibe]
safety (administered to rats, dogs, and humans): safe | foam cell formation in macrophages (human macrophages): reduces foam cell formation | progression of coronary atherosclerosis ([1]; humans, in combination with a statin drug): failed to demonstrate efficacy | activity in mouse model for Alzheimer's disease ([2]; 14.4 mg/kg/day): beneficial activity | amyloid plaque load [2, 5]: significant decreases | cognitive deficits [2, 5]: reduction in cognitive deficits

CC(O)COC[C@H]1O[C@@H]2O[C@H]3[C@H](O)[C@@H](O)[C@@H](O[C@H]4[C@H](O)[C@@H](O)[C@@H](O[C@H]5[C@H](O)[C@@H](O)[C@@H](O[C@H]6[C@H](O)[C@@H](O)[C@@H](O[C@H]7[C@H](O)[C@@H](O)[C@@H](O[C@H]8[C@H](O)[C@@H](O)[C@@H](O[C@H]1[C@H](O)[C@H]2O)O[C@@H]8COCC(C)O)O[C@@H]7COCC(C)O)O[C@@H]6COCC(C)O)O[C@@H]5COCC(C)O)O[C@@H]4COCC(C)O)O[C@@H]3COCC(C)O (stereo partly drawn) [HPCD, hydroxypropyl beta-cyclodextrin]
crossing the blood brain barrier (NPC mice and NPC cats; mouse, in vivo): difficulty in crossing the blood brain barrier | macrophage activation in the lungs (NPC mice and NPC cats; treated NPC mice and NPC cats): increases in macrophage activation | prolonged lifespan (NPC1^−/− mice; single injection at PND 7): 27% | cholesterol accumulation (NPC1^−/− mice; weekly treatment): normalize cholesterol accumulation | survival (NPC1^−/− mice; weekly treatment): prolong survival

CSc1cc(C)nc(SC)c1NC(=O)CN1CCN(CCSc2nc3ccccc3[nH]2)CC1 [K-604]
safety in vivo (laboratory animals): safe for use in vivo

CCCCN1C[C@H](O)[C@@H](O)[C@H](O)[C@H]1CO [Miglustat]
clinical onset (NPC1^−/− mice; [6]): significantly delayed | prolonged lifespan (NPC1^−/− mice; [6]): 49% | patients with stabilized NPC disease progression (NPC disease): 80 % of patients

CCCCCCCCN1CCc2c(C)c(CC(=O)O)c(C)c(NC(=O)C(C)(C)C)c21 [Pactimibe]
potency on ACAT1 versus ACAT2 (ACAT1 and ACAT2): approximately equal potency | efficacy as supplement to statin treatment ([1]; patients with familial hypercholesterolemia): lacked efficacy

CCOC(=O)OC(=O)OCC [diethyl pyrocarbonate]
greater activity on ACAT1 compared to ACAT-2 (ACAT1 [3]): 4 fold

COc1ccc([C@@H](O)[C@@H](C)Oc2ccc([C@H]3O[C@H](c4ccc(O[C@H](C)[C@H](O)c5ccc6c(c5)OCO6)c(OC)c4)[C@H](C)[C@H]3C)cc2OC)cc1OC [manassantin B]
inhibition of hACAT-2 (hACAT-2; at 1 mM): 32%

saucerneol B
IC50 (ACAT1 [4]): 43 µM | IC50 (hACAT-2; Lee et al. 2004): 124 µM
